Converted amounts (≈) assume the structure as drawn.
Legend:
Type in all cases: functional
Sus scrofa [1] = species on record: Sus scrofa; experiment: DHP-I (porcine) susceptibility with respect to imipenem
Enterococcus sp. [2] = experiment: In vitro antibacterial against Enterococcus species. by agar disc diffusion assay method with respect to imipenem
Escherichia coli [3] = experiment: In vitro antibacterial against Escherichia coli by agar disc diffusion assay method with respect to imipenem
Enterobacter sp. [4] = experiment: In vitro antibacterial against Enterobacter species. by agar disc diffusion assay method with respect to imipenem
Klebsiella sp. [5] = experiment: In vitro antibacterial against Klebsiella species. by agar disc diffusion assay method with respect to imipenem
Proteus [6] = experiment: In vitro antibacterial against Proteus species. by agar disc diffusion assay method with respect to imipenem
Pseudomonas aeruginosa = experiment: In vitro antibacterial against Pseudomonas aeruginosa by agar disc diffusion assay method
Staphylococcus aureus [7] = experiment: In vitro antibacterial activity against Methicillin-resistant Staphylococcus aureus (MRSA) by broth microtube dilution method; value ranges from 1-16
Serratia [8] = experiment: In vitro antibacterial against Serratia species. by agar disc diffusion assay method with respect to imipenem
Staphylococcus sp. [9] = experiment: In vitro antibacterial activity against Methicillin-resistant coagulase negative Staphylococci (MRCNS) by agar disc diffusion assay method with respect to imipenem
Staphylococcus aureus [10] = experiment: In vitro antibacterial activity against Methicillin-resistant Staphylococcus aureus (MRSA) by agar disc diffusion assay method with respect to imipenem
Staphylococcus aureus [11] = experiment: In vitro antibacterial activity against Methicillin-susceptible Staphylococcus aureus (MSSA) by agar disc diffusion assay method with respect to imipenem
Staphylococcus sp. [12] = experiment: In vitro antibacterial activity against Methicillin-resistant coagulase negative Staphylococci (MRCNS) by broth microtube dilution method; value ranges from 2-16
Staphylococcus sp. [13] = experiment: In vitro antibacterial activity against Methicillin-resistant coagulase negative Staphylococci (MRCNS) by broth microtube dilution method; value ranges from 4-32
Staphylococcus aureus [14] = experiment: In vitro antibacterial activity against Methicillin-resistant Staphylococcus aureus (MRSA) by broth microtube dilution method; value ranges from 0.5-8
Staphylococcus aureus [15] = experiment: In vitro antibacterial activity against Methicillin-resistant Staphylococcus aureus (MRSA) by broth microtube dilution method; value ranges from 1-8
Staphylococcus aureus [16] = experiment: In vitro antibacterial activity against Methicillin-resistant Staphylococcus aureus (MRSA) by broth microtube dilution method; value ranges from 0.5-4
Staphylococcus sp. [17] = experiment: In vitro antibacterial activity against Methicillin-resistant coagulase negative Staphylococci (MRCNS) by broth microtube dilution method; value ranges from 1-4
Staphylococcus aureus [18] = experiment: In vitro antibacterial activity against Methicillin-resistant Staphylococcus aureus (MRSA) by broth microtube dilution method
Staphylococcus sp. [19] = experiment: In vitro antibacterial activity against Methicillin-resistant coagulase negative Staphylococci (MRCNS) by broth microtube dilution method; value ranges from 4-8
Sus scrofa [20] = species on record: Sus scrofa; experiment: DHP-I(porcine) susceptibility was determined
Enterococcus sp. [21] = experiment: In vitro antibacterial against Enterococcus species. by agar disc diffusion assay method
Enterobacter sp. [22] = experiment: In vitro antibacterial against Enterobacter species. by agar disc diffusion assay method
Proteus [23] = experiment: In vitro antibacterial against Proteus species. by agar disc diffusion assay method
Staphylococcus aureus [24] = experiment: In vitro antibacterial activity against Methicillin-susceptible Staphylococcus aureus (MSSA) by agar disc diffusion assay method
Serratia [25] = experiment: In vitro antibacterial against Serratia species. by agar disc diffusion assay method
Staphylococcus aureus [26] = experiment: In vitro antibacterial activity against Methicillin-resistant Staphylococcus aureus (MRSA) by broth microtube dilution method; value ranges from 128 to >128
Staphylococcus sp. [27] = experiment: In vitro antibacterial activity against Methicillin-resistant coagulase negative Staphylococci (MRCNS) by broth microtube dilution method; value ranges from 128 to >128
Escherichia coli [28] = experiment: In vitro antibacterial against Escherichia coli by agar disc diffusion assay method
Klebsiella sp. [29] = experiment: In vitro antibacterial against Klebsiella species. by agar disc diffusion assay method

Row | SMILES | Relative susceptibility (Sus scrofa [1]) | Relative potency (Enterococcus sp. [2]) | Relative potency (Escherichia coli [3]) | Relative potency (Enterobacter sp. [4]) | Relative potency (Klebsiella sp. [5]) | Relative potency (Proteus [6]) | Relative potency (Pseudomonas aeruginosa) | Relative potency (Serratia [8]) | Relative potency (Staphylococcus sp. [9]) | Relative potency (Staphylococcus aureus [10]) | Relative potency (Staphylococcus aureus [11]) | further results
1 | C[C@@H](O)[C@H]1C(=O)N2C(C(=O)[O-])=C(c3cccc4c3c3cccnc3n4C)C[C@H]12.[Na+] | 0 | 1.4 fold | 0.25 fold | 0.092 fold | 0.08 fold | 1.2 fold | 0.009 fold | 0.38 fold | 12 fold | 13 fold | 0.26 fold | MIC50 (Staphylococcus aureus [7]): 4 µg/mL; MIC90 (Staphylococcus aureus [7]): 8 µg/mL; MIC50 (Staphylococcus sp. [12]): 8 µg/mL; MIC90 (Staphylococcus sp. [12]): 16 µg/mL
2 | C[C@@H](O)[C@H]1C(=O)N2C(C(=O)[O-])=C(c3ccc4c5cccnc5n(C)c4c3)C[C@H]12.[Na+] | 0.02 | 1.5 fold | 0.15 fold | 0.041 fold | 0.054 fold | 0.59 fold | 0.007 fold | 0.051 fold | 4.1 fold | 4.9 fold | 0.15 fold | 
3 | C[C@@H](O)[C@H]1C(=O)N2C(C(=O)[O-])=C(c3ccc4c(c3)c3cccnc3n4C)C[C@H]12.[Na+] | 0.06 | 2.1 fold | 0.12 fold | 0.034 fold | 0.059 fold | 1.4 fold | 0.007 fold | 0.1 fold | 8.6 fold | 8 fold | 0.17 fold | MIC50 (Staphylococcus aureus [7]): 4 µg/mL; MIC90 (Staphylococcus aureus [7]): 8 µg/mL; MIC50 (Staphylococcus sp. [13]): 8 µg/mL; MIC90 (Staphylococcus sp. [13]): 16 µg/mL
4 | C[C@@H](O)[C@H]1C(=O)N2C(C(=O)[O-])=C(c3ccc4c(c3)c3cnccc3n4C)C[C@H]12.[Na+] | 0 | 4 fold | 1.8 fold | 0.98 fold | 0.94 fold | 20 fold | 0.018 fold | 4.8 fold | 40 fold | 11 fold | 0.56 fold | MIC50 (Staphylococcus aureus [14]): 4 µg/mL; MIC90 (Staphylococcus aureus [14]): 8 µg/mL; MIC50 (Staphylococcus sp. [12]): 8 µg/mL; MIC90 (Staphylococcus sp. [12]): 16 µg/mL
5 | C[C@@H]([O-])[C@H]1C(=O)N2C(C(=O)[O-])=C(c3ccc4c(c3)c3c(ccc[n+]3C)n4C)C[C@H]12.[Na+] | 0 | 2.5 fold | 1.3 fold | 1.2 fold | 1.1 fold | 9.3 fold | 0.018 fold | 2.2 fold | 27 fold | 12 fold | 0.58 fold | MIC50 (Staphylococcus aureus [15]): 4 µg/mL; MIC90 (Staphylococcus aureus [15]): 8 µg/mL; MIC50 (Staphylococcus sp. [12]): 8 µg/mL; MIC90 (Staphylococcus sp. [12]): 16 µg/mL
6 | C[C@@H]([O-])[C@H]1C(=O)N2C(C(=O)[O-])=C(c3ccc4c(c3)c3ccc[n+](C)c3n4C)C[C@H]12.[Na+] | 0.05 | 3.9 fold | 4.8 fold | 2.8 fold | 3 fold | 26 fold | 0.057 fold | 4.5 fold | 313 fold | 30 fold | 0.49 fold | MIC50 (Staphylococcus aureus [16]): 2 µg/mL; MIC90 (Staphylococcus aureus [16]): 4 µg/mL; MIC50 (Staphylococcus sp. [17]): 4 µg/mL; MIC90 (Staphylococcus sp. [17]): 4 µg/mL
7 | C[C@@H](O)[C@H]1C(=O)N2C(C(=O)O)=C(c3ccc4c(c3)c3ccncc3n4C)C[C@H]12 | 0.034 |  |  |  |  |  |  |  |  |  |  | 
8 | CN[C@H](CC(C)C)C(=O)N[C@H]1C(=O)N[C@@H](CC(N)=O)C(=O)N[C@H]2C(=O)N[C@H]3C(=O)N[C@H](C(=O)N[C@H](C(=O)O)c4cc(O)cc(O)c4-c4cc3ccc4O)[C@H](O)c3ccc(c(Cl)c3)Oc3cc2cc(c3O[C@@H]2O[C@H](CO)[C@@H](O)[C@H](O)[C@H]2O[C@H]2C[C@](C)(N)[C@H](O)[C@H](C)O2)Oc2ccc(cc2Cl)[C@H]1O [VANCOMYCIN] |  |  |  |  |  |  |  |  |  |  |  | MIC90 (Staphylococcus aureus [18]): 2 µg/mL (≈ 1.38 µM); MIC90 (Staphylococcus sp. [19]): 4 µg/mL (≈ 2.76 µM)
9 | C[C@@H]([O-])[C@H]1C(=O)N2C(C(=O)[O-])=C(c3ccc4[nH]c5c[n+](C)ccc5c4c3)C[C@H]12.[Na+] | 0.027 | 2.8 fold | 9.2 fold | 7.7 fold | 2.8 fold | 25 fold | 0.027 fold | 12 fold | 166 fold | 28 fold | 0.42 fold | MIC50 (Staphylococcus aureus [14]): 2 µg/mL; MIC90 (Staphylococcus aureus [14]): 4 µg/mL; MIC50 (Staphylococcus sp. [17]): 4 µg/mL; MIC90 (Staphylococcus sp. [17]): 4 µg/mL
10 | C[C@@H]([O-])[C@H]1C(=O)N2C(C(=O)[O-])=C(c3ccc4c(c3)c3cc[n+](C)cc3n4C)C[C@H]12.[Na+] | 0.01 | 3.8 fold | 3.8 fold | 2.5 fold | 2.5 fold | 21 fold | 0.035 fold | 3.6 fold | 287 fold | 23 fold | 0.38 fold | MIC50 (Staphylococcus aureus [15]): 2 µg/mL; MIC90 (Staphylococcus aureus [15]): 4 µg/mL; MIC50 (Staphylococcus sp. [17]): 4 µg/mL; MIC90 (Staphylococcus sp. [17]): 4 µg/mL
11 | CC[n+]1cccc2c3cc(C4=C(C(=O)[O-])N5C(=O)[C@H]([C@@H](C)[O-])[C@H]5C4)ccc3n(C)c21.[Na+] | 0.01 | 3.7 fold | 2.8 fold | 1.4 fold | 1.4 fold | 11 fold | 0.035 fold | 3.2 fold | 277 fold | 21 fold | 0.43 fold | 
12 | C[C@@H](O)[C@H]1C(=O)N2C(C(=O)[O-])=C(c3ccc4c(c3)c3c[n+](C)ccc3n4C)C[C@H]12 | 0.007 | 3.7 fold | 1.5 fold | 0.94 fold | 1.2 fold | 14 fold | 0.026 fold | 2.1 fold | 40 fold | 14 fold | 0.59 fold | MIC50 (Staphylococcus aureus [15]): 4 µg/mL (≈ 10.2 µM); MIC90 (Staphylococcus aureus [15]): 8 µg/mL (≈ 20.4 µM); MIC50 (Staphylococcus sp. [12]): 8 µg/mL (≈ 20.4 µM); MIC90 (Staphylococcus sp. [12]): 16 µg/mL (≈ 40.9 µM)
13 | C[C@@H](O)[C@H]1C(=O)N2C(C(=O)O)=C(SCCNC=N)C[C@H]12 [IMIPENEM ANHYDROUS] |  |  |  |  |  |  |  |  |  |  |  | Relative susceptibility (Sus scrofa [20]): 1; MIC (Enterococcus sp. [21]): 2.8 µg/mL (≈ 9.35 µM); MIC (Enterobacter sp. [22]): 0.49 µg/mL (≈ 1.64 µM); MIC (Proteus [23]): 0.95 µg/mL (≈ 3.17 µM); MIC (Pseudomonas aeruginosa): 0.31 µg/mL (≈ 1.04 µM); MIC (Staphylococcus aureus [24]): 0.009 µg/mL (≈ 0.0301 µM); MIC (Serratia [25]): 0.76 µg/mL (≈ 2.54 µM); MIC90 (Staphylococcus aureus [26]): > 128 µg/mL; MIC90 (Staphylococcus sp. [27]): > 128 µg/mL; MIC (Escherichia coli [28]): 0.68 µg/mL (≈ 2.27 µM); MIC (Klebsiella sp. [29]): 0.59 µg/mL (≈ 1.97 µM)
14 | C[C@@H](O)[C@H]1C(=O)N2C(C(=O)[O-])=C(c3ccc4c(c3)c3ncccc3n4C)C[C@H]12.[Na+] | 1.8 | 1.2 fold | 0.31 fold | 0.065 fold | 0.16 fold | 6.6 fold | 0.006 fold | 0.37 fold | 4.5 fold | 5.3 fold | 0.2 fold | 

— ChEMBL document CHEMBL1128873, “The synthesis and antibacterial activity of 2-carbolinyl-carbapenems: potent anti-MRSA/MRCNS agents” (1995)
